According to patent publication US20030083375A1, “11Beta-fluoro 15beta-hydroxy PGF2alpha analogs as FP receptor antagonists” (priority 1997, published 2003):
Where two headings read alike, the source gives them in different places. Blank lines part the entries; values can stand above or below the compound they belong to.

How the values were obtained:
FP receptor [1] = biological target: T1, FP receptor (Rattus norvegicus, UniProt P43118); assay: Antagonism of fluprostenol-stimulated [3H]IPs production in A7r5 cells; assay type: cell-based
T1 construct: Two cell lines containing the FP receptor have been extensively characterized by this method; host or cells: A7r5 rat thoracic aorta smooth muscle cells
T1 sequence (P43118 whole entry): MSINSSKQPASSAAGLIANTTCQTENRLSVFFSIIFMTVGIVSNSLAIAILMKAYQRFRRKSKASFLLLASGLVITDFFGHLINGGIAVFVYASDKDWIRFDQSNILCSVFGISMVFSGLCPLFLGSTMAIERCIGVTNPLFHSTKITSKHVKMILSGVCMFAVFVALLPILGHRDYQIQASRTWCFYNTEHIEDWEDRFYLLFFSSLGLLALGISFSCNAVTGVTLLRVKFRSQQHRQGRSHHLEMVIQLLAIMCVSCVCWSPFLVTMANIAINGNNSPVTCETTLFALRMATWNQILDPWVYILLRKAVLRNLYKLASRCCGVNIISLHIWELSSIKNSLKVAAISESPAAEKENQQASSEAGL
Description: (§1) Confluent monolayer cultures of cells (in a standard 24-well tissue culture plate) expressing the FP receptor are exposed to [^3H]-myo-inositol (1.5 μCi in a volume of 0.5 ml DMEM culture medium supplemented with 2 mM L-glutamine and 10 μg/ml gentamicin sulfate) in the absence of serum, which causes net incorporation of the radioisotope into the phosphotidylinositol membrane lipids. After 24-32 hrs, the medium with the radioisotope is removed and the cells are rinsed once with DMEM/F-12 medium containing 10 mM LiCl (assay medium). Then 0.5 ml of assay medium is added to each well of cells, followed by addition of varying concentrations of an FP receptor agonist (or other test compound). Cells are exposed to the test agent for 30-120 min in a humidified incubator (95% air/5% CO2), maintained at 37° C. Then the assay medium is removed and 1 ml of 0.1 M formic acid is added to the cell monolayer to inactivate the phospholipase C release the radiolabelled products into the assay medium. The presence of LiCl during the agonist stimulation period inhibits phosphatases and permits the accumulation of radiolabelled inositol phosphates (IPs) which is measured by ion exchange chromatography.
The agonist-dependent production of IPs, which reflects the degree of receptor activation, is quantitatively measured for each well of cells in the 24-well plate by separating the negatively charged radiolabelled IPs from other minor radiolabelled species and free [^3H]-myo-inositol by anion exchange chromatography. This is accomplished by adding 0.9 ml of the cell lysate obtained as described above to a column packed with 1 ml of AG 1-X8 anion exchange resin in the formate form. The elution and separation of the radiolabelled IPs from the column consists of sequential additions to the column of: 1) 10 ml of water; 2) 8 ml of 50 mM ammonium formate; and 3) 4 ml of 1.2 M ammonium formate solution containing 0.1 M formic acid. The first two washes are discarded, and the third is collected in a scintillation vial, to which is added 15 ml of a water-accepting scintillation fluid. These samples, i.e., the radiolabelled IPs formed by the cells in response to stimulation by an FP prostaglandin receptor agonist or other test agent, is then measured by scintillation spectrometry on a beta-counter.
The dependence of the level of the [^3H]IPs production on agonist concentration is analyzed by standard pharmacological methods to determine the potency (EC50 value) and efficacy (maximum response; Emax) of the FP receptor agonist relative to a standard FP receptor agonist such as fluprostenol. […] The agonist stimulation is then continued for the standard time (30-120 min), after which the procedure for quenching the reaction, separating the [^3H]IPs, and anion exchange chromatography is identical to the procedure described above. A compound is considered to be an antagonist in this protocol if it inhibits the agonist-stimulated [^3H]IPs production relative to the production measured in the control experiment (performed in parallel), in which the solvent is substituted for the antagonist.
Two different antagonist protocols are employed: 1) the antagonist concentration is varied while holding the agonist concentration fixed at a concentration approximately 10 times the agonist EC50 value and 2) the antagonist concentration is fixed in a given experiment, with the agonist concentration varied, and several such experiments, each with a different, fixed antagonist concentration, are performed. […] Overall, the Ki and Kb values are synonymous and represent the antagonist potency of the antagonist at equilibrium.

FP receptor [2] = biological target: T1, FP receptor; assay: Agonist stimulation of [3H]IPs production in A7r5 cells; assay type: cell-based
Description: as §1
The agonist-dependent production of IPs, which reflects the degree of receptor activation, is quantitatively measured for each well of cells in the 24-well plate by separating the negatively charged radiolabelled IPs from other minor radiolabelled species and free [^3H]-myo-inositol by anion exchange chromatography. […] These samples, i.e., the radiolabelled IPs formed by the cells in response to stimulation by an FP prostaglandin receptor agonist or other test agent, is then measured by scintillation spectrometry on a beta-counter.
The dependence of the level of the [^3H]IPs production on agonist concentration is analyzed by standard pharmacological methods to determine the potency (EC50 value) and efficacy (maximum response; Emax) of the FP receptor agonist relative to a standard FP receptor agonist such as fluprostenol. […]

human ocular FP receptor = biological target: T2, human ocular FP receptor (Homo sapiens, UniProt P43088); assay: Antagonism of fluprostenol-induced [3H]IPs production in HEK-293 cells expressing recombinant human ocular FP receptor; assay type: cell-based
T2 construct: expressed in transfected cells; host or cells: HEK-293 (human embryonic kidney)
T2 sequence (P43088 whole entry): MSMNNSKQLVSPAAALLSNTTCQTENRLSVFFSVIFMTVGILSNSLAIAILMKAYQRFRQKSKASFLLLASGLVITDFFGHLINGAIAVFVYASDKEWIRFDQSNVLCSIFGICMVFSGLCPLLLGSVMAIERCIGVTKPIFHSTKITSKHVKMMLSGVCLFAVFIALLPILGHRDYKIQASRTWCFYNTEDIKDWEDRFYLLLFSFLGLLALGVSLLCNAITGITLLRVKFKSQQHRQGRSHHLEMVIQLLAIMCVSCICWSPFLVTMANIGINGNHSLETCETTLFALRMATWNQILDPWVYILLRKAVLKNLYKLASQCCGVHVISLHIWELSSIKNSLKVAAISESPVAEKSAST
Description: as §1, with “Then the assay medium is removed and 1 ml of 0.1 M formic acid is added to the cell monolayer to inactivate the phospholipase C release the radiolabelled products into the assay medium.” left out
The agonist-dependent production of IPs, which reflects the degree of receptor activation, is quantitatively measured for each well of cells in the 24-well plate by separating the negatively charged radiolabelled IPs from other minor radiolabelled species and free [^3H]-myo-inositol by anion exchange chromatography. […]

[3] = biological target: FP prostaglandin receptor (Homo sapiens, UniProt P43088); assay: Selectivity for the FP prostaglandin receptor compared to other classes of prostaglandin receptors
Sequence of FP prostaglandin receptor (P43088 whole entry): as above

Compound: CCCCC[C@H](O)/C=C/[C@@H]1[C@@H](C/C=C\CCCCN(C)C)[C@@H](O)C[C@H]1O [PGF2α dimethyl amine, reference compound]
Kb, mol/L (potency as antagonist of the FP receptor) (FP receptor [1]; Schild analysis): Inactive

Compound: CCCCC[C@H](O)/C=C/[C@@H]1[C@@H](C/C=C\CCCC(=O)N(C)C)[C@@H](O)C[C@H]1O [PGF2α dimethyl amide, reference compound]
Kb, mol/L (potency as antagonist of the FP receptor) (FP receptor [1]; Schild analysis): Inactive

Compound: O=C(O)CCC/C=C\C[C@@H]1[C@@H](/C=C/[C@@H](O)COc2cccc(C(F)(F)F)c2)[C@H](O)C[C@@H]1O (racemic) [fluprostenol]
Agonist classification (maximum effect relative to full agonists) (FP receptor [2]): full agonist

Other lines, results leading:

Kb (FP receptor [1]; Schild analysis, read-out: Kb, mol/L (potency as antagonist of the FP receptor)): 0.25 µM
Ki (FP receptor [1]; fixed fluprostenol concentration about 10 times the agonist EC50, read-out: Ki (method of FIG. 2, antagonist concentration varied)): 0.426 ± 0.063 µM
Kb (FP receptor [1]; fluprostenol agonist varied, fixed antagonist concentrations, n=4 experiments, read-out: Kb (Schild analysis)): 0.285 ± 0.097 µM
Fold higher potency as FP receptor antagonist than phloretin (FP receptor [1]; from Table 1): > 10 fold
Type of antagonism (FP receptor [1]; shift of fluprostenol dose-response curves, maximal effect unaltered): competitive antagonist
Agonist classification (maximum effect relative to full agonists) (FP receptor [2]): partial agonist
Antagonism of fluprostenol-induced [3H]IPs production (human ocular FP receptor): behaved as an antagonist
Selectivity for FP prostaglandin receptor versus other prostaglandin receptor classes [3]: relatively good selectivity
Compound: O=C(O)CCC/C=C\C[C@@H]1[C@@H](/C=C/[C@H](O)C2Cc3ccccc3C2)[C@@H](F)C[C@@H]1O [Compound III, (5Z,13E)-(9S,11S,15R)-9,15-Dihydroxy-11-fluoro-15-(2-indanyl)-16,17,18,19,20-pentanor-5,13-prostadienoic acid]

Agonist classification (maximum effect relative to full agonists) (FP receptor [2]): full agonist
Compound: O=C(O)CCC/C=C\CC1C(O)CC(O)C1/C=C/C(O)COc1cccc(Cl)c1 (stereo not shown) [cloprostenol]

Kb, mol/L (potency as antagonist of the FP receptor) (FP receptor [1]; Schild analysis): Inactive
Compound: CCCCNC(=O)NS(=O)(=O)c1ccc(C)cc1 [Tolbutamide, reference compound]
